“Also recorded” adds a separate entry of the source.
How the values were obtained:
rabbit gastric glands = experiment: Intracellular ATP in rabbit gastric glands; type: cell-based
bullfrog gastric mucosa [1] = experiment: Acid secretion of frog (bullfrog) gastric mucosa stimulated with histamine/carbachol or forskolin; type: cell-based
bullfrog gastric mucosa [2] = type: cell-based
Method: FIG. 1B Electrophysiology in the bullfrog gastric mucosa. […] Removal of NH4Cl was followed by a complete recovery of R within 30 min. Data were obtained from 21 experiments and are expressed as the mean±SEM.
FIG. 1C Electrophysiology in the bullfrog gastric mucosa. […] Removal of NH4Cl was followed by a complete recovery of PD within 30 min. Data were obtained from 21 experiments and are expressed as the mean±SEM.

bullfrog gastric mucosa [3] = conditions: cited from earlier work
[4] = system: cimetidine-inhibited tissues; experiment: Resistance (R) of cimetidine-inhibited gastric mucosa tissues; type: cell-based, bullfrog; conditions: pH 7.2
Method: Tissues were incubated with cimetidine until acid secretion reached 0 μEq/hr cm^2; experiments were performed only if the R of paired tissues was different by 10% or less.

[5] = system: Ca^2+-dependent inwardly rectifying K^+ channel; conditions: HeLa cells (Diaz et al.); cited from earlier work

## Cl.N [NH4Cl, ammonium chloride]
Rabbit gastric glands
  effect on concentration of ATP (in words): statistically significant reduction in the concentration of ATP
  intracellular ATP: 3.76±0.12 μM/mg protein
  intracellular ATP, % of control: 83 % of control
Bullfrog gastric mucosa [1]
  Rate of decline in acid secretion: −0.2881 (μEq/h · cm^2)/min
  acid secretion after NH4Cl washed from the nutrient bath: 5.51±0.16 μEq/hr cm^2
  effect of 1-9 mM NH4Cl on acid secretion: inhibition of acid secretion
  least (minimum) concentration required for complete inhibition of acid secretion within 30 min: 10 mM
  rate of decline of acid secretion relative to cimetidine: 3.6 times faster
  rate of decline of acid secretion relative to omeprazole: 3.2 times faster
  rate of inhibition of acid secretion relative to cimetidine or omeprazole: more than 3 times faster
  time to complete inhibition of stimulated acid secretion: ≤ 30 min
Bullfrog gastric mucosa [1]; pH 7.2
  rate of acid secretion after NH4Cl: 0±0 μEq/hr cm^2
Bullfrog gastric mucosa [2]
  PD after NH4Cl: 28.48±1.47 mvolts
  PD after NH4Cl washed out: 7.95±2.65 mvolts
  R after NH4Cl: 306.5±16.11 Ohm cm^2
  R after NH4Cl washed out: 159.0±16.83 Ohm cm^2
  effect on potential difference (PD) of stimulated tissues (in words): increase in potential difference (PD)
  effect on resistance (R) of stimulated tissues (in words): increase in resistance (R)
Bullfrog gastric mucosa [3]
  effect of luminal NH4Cl on tissue resistance (Yanaka et al.): significant decrement in tissue resistance
Bullfrog gastric mucosa [3]; pH 7.2
  effect of basolateral NH4Cl on acid secretion (Yanaka et al.): rapidly and completely inhibits acid secretion
[4]
  effect of NH4Cl on R of cimetidine-inhibited tissues (in words): does not cause an increase in R; also recorded: no change in R

## N [NH4^+]
[5]
  inhibition of Ca2+-dependent inwardly rectifying K+ channel activity: potent inhibitor
